Results from EP3381905A1, “NOVEL ANTIVIRAL COMPOUNDS” (priority 2017, dated 2018).

What was measured:
[1] = system: U2OS cells; assay: cytotoxicity, CellTiter-Glo Luminescent Cell Viability Assay; settings: for cytotoxicity profile (normalized cell viability): 250 nM to 50 µM, 36 h (Figure 7)
[2] = system: GFP expressing HAd-C5 vector; assay: fluorescent plaque forming assay (adenoviral propagation / virus spread); assay type: cell-based, adenovirus
[3] = system: MARV VP40 with the late domain motif of Ebola virus (PTAPPEY) VP40 (VP40ELD); assay type: cell-based, Marburg virus
[4] = system: HAd-C5-wt virus; assay: adenoviral early gene expression by real-time PCR; assay type: cell-based, adenovirus; settings: U2OS cells, 5 µM, 4 hours post-infection, vs vehicle
[5] = system: HAd-C5; assay: adenovirus genome nuclear import (nuclear protein VII staining, confocal microscopy); assay type: cell-based; settings: U2OS cells, 5 µM, 2500 pp/cell, 2 hours post-infection, vs DMSO
[6] = system: MARV

`Clc1ccc(-c2ccc(Cn3ccnc3)c(-c3ccc(Cl)cc3Cl)c2)c(Cl)c1` [CT2-10, 1-((2,2",4,4"-Tetrachloro-[1,1':3',1"-terphenyl]-4'-yl)methyl)-1H-imidazole] was tested, and the “cytotoxicity profile (normalized cell viability)” value [1] was “cytotoxicity profiles similar to Sulconazole”.

With `Clc1ccc(-c2cc(-n3ccnc3)c(-c3ccc(Cl)cc3Cl)o2)c(Cl)c1` [CT2-13, 1-(2,5-bis(2,4-Dichlorophenyl)furan-3-yl)-1H-imidazole] the “cytotoxicity profile (normalized cell viability)” value [1] was “cytotoxicity profiles similar to Sulconazole”.

In the case of `Nc1ccn(C[C@@H](CO)OCP(=O)(O)O)c(=O)n1` [Cidofovir], the “inhibition of adenoviral propagation (plaque size)” value ([2]; 10 µM and 20 µM (Example 8, Figure 6)) is reported as “did not show significant inhibition”.

In the case of `Clc1ccc(CO/N=C(\Cn2ccnc2)c2ccc(Cl)cc2Cl)c(Cl)c1` [Oxiconazole], the “cytotoxicity profile (normalized cell viability)” value [1] is reported as “cytotoxicity profiles similar to Sulconazole”.

For `Clc1ccc(CSC(Cn2ccnc2)c2ccc(Cl)cc2Cl)cc1` (stereo not shown) [Sulconazole], the “plaque size (adenovirus virus propagation)” value ([2]; 5 µM, HEK293 cells, 0.1 pp/cell HAd-C5-GFP, six days after infection, vs DMSO (Example 3, Figure 1, P<0.0001)) was “significant reduced plaque size”, the “VP40 VLP release” value [3] was “inhibit” and the “early viral genes expression (E1A, E1B, E4 orf6/7)” value [4] was “significant reduction of early viral genes expression”. For the same compound, the “nuclear accumulation of viral genomes (protein VII)” value [5] was “significantly reduces the nuclear accumulation of viral genomes”, the “reduction of MARV titers (TCID50)” value [6] was 1-2 log and the cytotoxicity ([1]; 5 µM, 36 h) was “not cytotoxic”.
